Experimental data published in US20100317607A1, “USE OF COMPOUNDS FOR PREPARING ANTI-TUBERCULOSIS AGENTS” (INFECTIOUS DISEASE RESEARCH INSTITUTE, priority 2007, published 2010).
In brackets after ≈: the same amount, converted by molar mass. Where a name gives a salt, the structure may show the parent alone.

test system: H37Rv strain of M. tuberculosis; assay: Alamar Blue Susceptibility Test (MABA); assay type: cell-based; details: Mycobacterium tuberculosis; H37Rv strain of M. tuberculosis; Alamar Blue; read-out: MABA (TB growth inhibition, colourimetric assay)

Compound | MIC [µM]
FC1(F)CCN(c2nc(NCc3ccc(Cl)cc3)nc3ccccc23)CC1 [Compound 146, N-(4-Chlorobenzyl)-4-(4,4-difluoropiperidin-1-yl)quinazolin-2-amine hydrochloride] | 10 to 50
FC1(F)CCN(c2nc(NCc3ccc(C(F)(F)F)cc3)nc3ccccc23)CC1 [Compound 147, 4-(4,4-Difluoropiperidin-1-yl)-N-(4-(trifluoromethyl)benzyl)quinazolin-2-amine] | < 10
Fc1ccc(CNc2nc(N3CCC(F)(F)CC3)c3ccccc3n2)c(F)c1 [Compound 148, N-(2,4-Difluorobenzyl)-4-(4,4-difluoropiperidin-1-yl)quinazolin-2-amine] | 10 to 50 (≈ 3.9 to 19.5 µg/mL)
Fc1ccc(CNc2nc(N3CCC(F)(F)CC3)c3ccccc3n2)cc1 [Compound 149, 4-(4,4-Difluoropiperidin-1-yl)-N-(4-fluorobenzyl)quinazolin-2-amine hydrochloride] | 10 to 50
COc1cc2nc(N3CCCCC3)nc(NCc3ccc(F)cc3)c2cc1OC [Compound 150, N-(4-Fluorobenzyl)-6,7-dimethoxy-2-(piperidin-1-yl)quinazolin-4-amine hydrochloride] | 10 to 50
COc1cc2nc(N3CCC(F)(F)CC3)nc(NCc3ccc(F)cc3)c2cc1OC [Compound 151, 2-(4,4-Difluoropiperidin-1-yl)-N-(4-fluorobenzyl)-6,7-dimethoxyquinazolin-4-amine hydrochloride] | 10 to 50
Fc1ccc(C2(Nc3nc(N4CCCCC4)nc4ccccc34)CC2)cc1 [Compound 152, N-(1-(4-Fluorophenyl)cyclopropyl)-2-(piperidin-1-yl)quinazolin-4-amine] | 10 to 50 (≈ 3.62 to 18.1 µg/mL)
Fc1ccc(C2(Nc3nc(N4CCC(F)(F)CC4)nc4ccccc34)CC2)cc1 [Compound 153, 2-(4,4-Difluoropiperidin-1-yl)-N-(1-(4-fluorophenyl)cyclopropyl)quinazolin-4-amine] | 50 to 128 (≈ 19.9 to 51 µg/mL)
Fc1ccc(CNc2nc(NC3(c4ccc(F)cc4)CC3)c3ccccc3n2)cc1 [Compound 154, N^2-(4-Fluorobenzyl)-N^4-(1-(4-fluorophenyl)cyclopropyl)quinazoline-2,4-diamine] | < 10
Fc1ccc(CNc2nc(N3CCCCC3)nc3cc(F)ccc23)cc1 [Compound 155, 7-Fluoro-N-(4-fluorobenzyl)-2-(piperidin-1-yl)quinazolin-4-amine] | < 10
Fc1ccc(CNc2nc(N3CCC(F)(F)CC3)nc3cc(F)ccc23)cc1 [Compound 156, 2-(4,4-Difluoropiperidin-1-yl)-7-fluoro-N-(4-fluorobenzyl)quinazolin-4-amine] | 10 to 50 (≈ 3.9 to 19.5 µg/mL)
Fc1ccc(CNc2nc(NCc3ccc(F)cc3)c3ccc(F)cc3n2)cc1 [Compound 157, 7-Fluoro-N^2, N^4-bis(4-fluorobenzyl)quinazoline-2,4-diamine] | < 10
Cc1ccc(CNc2nc(NCc3ccc(F)cc3)nc3ccccc23)o1 [Compound 158, N^2-(4-Fluorobenzyl)-N^4-((5-methylfuran-2-yl)methyl)quinazoline-2,4-diamine hydrochloride] | 10 to 50
Fc1ccc(CNc2nc(NCc3ccc(C(F)(F)F)o3)c3ccccc3n2)cc1 [Compound 159, N^2-(4-Fluorobenzyl)-N4-((5-(trifluoromethyl)furan-2-yl)methyl)quinazoline-2,4-diamine hydrochloride] | < 10
FC(F)(F)c1ccc(CNc2nc(N3CCCCC3)nc3ccccc23)o1 [Compound 160, 2-(Piperidin-1-yl)-N-((5-(trifluoromethyl)furan-2-yl)methyl)quinazolin-4-amine hydrochloride] | < 10
FC1(F)CCN(c2nc(NCc3ccc(C(F)(F)F)o3)c3ccccc3n2)CC1 [Compound 161, 2-(4,4-Difluoropiperidin-1-yl)-N-((5-(trifluoromethyl)furan-2-yl)methyl)quinazolin-4-amine hydrochloride] | 10 to 50
FC(F)(F)Oc1ccc(CNc2nc(N3CCCCC3)nc3ccccc23)cc1 [Compound 162, 2-(Piperidin-1-yl)-N-(4-(trifluoromethoxy)benzyl)quinazolin-4-amine] | < 10
FC1(F)CCN(c2nc(NCc3ccc(OC(F)(F)F)cc3)c3ccccc3n2)CC1 [Compound 163, 2-(4,4-Difluoropiperidin-1-yl)-N-(4-(trifluoromethoxy)benzyl)quinazolin-4-amine] | 10 to 50 (≈ 4.38 to 21.9 µg/mL)
Oc1ccc(CNc2nc(N3CCCCC3)nc3ccccc23)cc1 [Compound 164, 4-((2-(Piperidin-1-yl)quinazolin-4-ylamino)methyl)phenol] | 10 to 50 (≈ 3.34 to 16.7 µg/mL)
Oc1ccc(CNc2nc(NCc3ccc(F)cc3)nc3ccccc23)cc1 [Compound 165, 4-((2-(4-Fluorobenzylamino)quinazolin-4-ylamino)methyl)phenol] | 10 to 50 (≈ 3.74 to 18.7 µg/mL)
Fc1ccc(CNc2nc(NCc3ccc(F)cc3)c3sccc3n2)cc1 [Compound 166, N^2,N^4-bis(4-Fluorobenzyl)thieno[3,2-d]pyrimidine-2,4-diamine] | 10 to 50 (≈ 3.82 to 19.1 µg/mL)
Cc1ccc(CNc2nc(N3CCCCC3)nc3ccccc23)o1 [Compound 167, N-((5-Methylfuran-2-yl)methyl)-2-(piperidin-1-yl)quinazolin-4-amine] | < 10
COc1cc2nc(NCc3ccc(F)cc3)nc(NCc3ccc(F)cc3)c2cc1OC [Compound 168, N^2,N^4-bis(4-Fluorobenzyl)-6,7-dimethoxyquinazoline-2,4-diamine] | 10 to 50 (≈ 4.36 to 21.8 µg/mL)

Compound | MIC [µM]
Fc1ccc(CNc2nc(N3CCOCC3)nc3ccccc23)cc1 [Compound 169, N-(4-Fluorobenzyl)-2-morpholinoquinazolin-4-amine] | 10 to 50 (≈ 3.38 to 16.9 µg/mL)
Cc1ccc(CNc2nc(NCc3ccc(F)cc3)c3ccccc3n2)o1 [Compound 170, N^4-(4-Fluorobenzyl)-N^2-((5-methylfuran-2-yl)methyl)quinazoline-2,4-diamine] | 10 to 50 (≈ 3.62 to 18.1 µg/mL)
Fc1ccc(CNc2nc(NCc3cc4ccccc4s3)nc3ccccc23)cc1 [Compound 171, N^2-(Benzo[b]thiophen-2-ylmethyl)-N^4-(4-fluorobenzyl)quinazoline-2,4-diamine] | 10 to 50 (≈ 4.15 to 20.7 µg/mL)
Fc1ccc(CNc2nc(N3CCCC3)nc3ccccc23)cc1 [Compound 172, N-(4-Fluorobenzyl)-2-(pyrrolidin-1-yl)quinazolin-4-amine] | < 10
Fc1ccc(CNc2nc(N3CCCC3)nc3ncccc23)cc1 [Compound 173, N-(4-Fluorobenzyl)-2-(pyrrolidin-1-yl)pyrido[2,3-d]pyrimidin-4-amine] | 10 to 50 (≈ 3.23 to 16.2 µg/mL)
Fc1ccc(CNc2nc(N3CCCCC3)nc3ncccc23)cc1 [Compound 174, N-(4-Fluorobenzyl)-2-(piperidin-1-yl)pyrido[2,3-d]pyrimidin-4-amine] | 10 to 50 (≈ 3.37 to 16.9 µg/mL)
COC(=O)[C@@H](Nc1nc(N2CCCCC2)nc2ccccc12)c1ccccc1 [Compound 175, (S)-Methyl 2-phenyl-2-(2-(piperidin-1-yl)quinazolin-4-ylamino)acetate] | 10 to 50 (≈ 3.76 to 18.8 µg/mL)
COC(=O)[C@H](Cc1ccccc1)Nc1nc(N2CCCCC2)nc2ccccc12 [Compound 176, (S)-Methyl 3-phenyl-2-(2-(piperidin-1-yl)quinazolin-4-ylamino)propanoate] | 50 to 128 (≈ 19.5 to 50 µg/mL)
OC[C@@H]1CCCN1c1nc(NCc2ccccc2)c2ccccc2n1 [Compound 177, (S)-(1-(4-(Benzylamino)quinazolin-2-yl)pyrrolidin-2-yl)methanol] | 50 to 128 (≈ 16.7 to 42.8 µg/mL)
COC[C@@H]1CCCN1c1nc(NCc2ccccc2)c2ccccc2n1 [Compound 178, (S)—N-Benzyl-2-(2-(methoxymethyl)pyrrolidin-1-yl)quinazolin-4-amine] | 50 to 128 (≈ 17.4 to 44.6 µg/mL)
Fc1ccc(CNc2nc(N3Cc4ccccc4C3)nc3ccccc23)cc1 [Compound 179, N-(4-Fluorobenzyl)-2-(isoindolin-2-yl)quinazolin-4-amine hydrochloride] | < 10
COC(=O)[C@@H]1CCCN1c1nc(NCc2ccccc2)c2ccccc2n1 [Compound 180, (S)-Methyl 1-(4-(benzylamino)quinazolin-2-yl)pyrrolidine-2-carboxylate] | 50 to 128 (≈ 18.1 to 46.4 µg/mL)
COc1cc2c(cc1OC)CN(c1nc(NCc3ccccc3)c3ccccc3n1)CC2 [Compound 181, N-Benzyl-2-(6,7-dimethoxy-3,4-dihydroisoquinolin-2(1H)-yl)quinazolin-4-amine] | 10 to 50 (≈ 4.27 to 21.3 µg/mL)
Fc1ccc(CNc2nc(N3CCCC3)nc3cccc(Cl)c23)cc1 [Compound 182, 5-Chloro-N-(4-fluorobenzyl)-2-(pyrrolidin-1-yl)quinazolin-4-amine] | 10 to 50 (≈ 3.57 to 17.8 µg/mL)
Fc1ccc(CNc2nc(N3CCCCC3)nc3cccc(Cl)c23)cc1 [Compound 183, 5-Chloro-N-(4-fluorobenzyl)-2-(piperidin-1-yl)quinazolin-4-amine] | 10 to 50 (≈ 3.71 to 18.5 µg/mL)
CC(C)(C)OC(=O)N1CCc2c(nc(N3CCCCC3)nc2NCc2ccc(F)cc2)C1 [Compound 184, tert-Butyl 4-(4-fluorobenzylamino)-2-(piperidin-1-yl)-5,6-dihydropyrido[3,4-d]pyrimidine-7(8H)-carboxylate] | 50 to 128 (≈ 22.1 to 56.5 µg/mL)
Fc1ccc(Nc2nc(N3CCCC3)nc3nccnc23)cc1 [Compound 185, N-(4-Fluorophenyl)-2-(pyrrolidin-1-yl)pteridin-4-amine] | 50 to 128 (≈ 15.5 to 39.7 µg/mL)
c1ccc2c(c1)CCN(c1nc(N3CCCC3)nc3ccccc13)C2 [Compound 186, 4-(3,4-Dihydroisoquinolin-2(1H)-yl)-2-(pyrrolidin-1-yl)quinazoline] | 10 to 50 (≈ 3.3 to 16.5 µg/mL)
c1csc(CNc2nc(N3CCCC3)nc3ccccc23)c1 [Compound 187, 2-(Pyrrolidin-1-yl)-N-(thiophen-2-ylmethyl)quinazolin-4-amine] | 10 to 50 (≈ 3.1 to 15.5 µg/mL)
COc1cc2c(cc1OC)CN(c1nc(N3CCCC3)nc3ccccc13)CC2 [Compound 188, 4-(6,7-Dimethoxy-3,4-dihydroisoquinolin-2(1H)-yl)-2-(pyrrolidin-1-yl)quinazoline] | 10 to 50 (≈ 3.9 to 19.5 µg/mL)
Clc1ccc(CNc2nc(N3CCCCC3)nc3ccccc23)s1 [Compound 189, N-((5-Chlorothiophen-2-yl)methyl)-2-(piperidin-1-yl)quinazolin-4-amine] | < 10
c1ccc2c(NCc3ccoc3)nc(N3CCCCC3)nc2c1 [Compound 190, N-(Furan-3-ylmethyl)-2-(piperidin-1-yl)quinazolin-4-amine] | 10 to 50 (≈ 3.08 to 15.4 µg/mL)
